We go through one compound from patent US20220279826A1, “OFF-FLAVOR SUPPRESSING AGENT” (AJINOMOTO CO., INC., priority 2019, published 2022).

Test [1] is described as follows: Sensory evaluation of off-taste suppressing effect in 0.8 wt % potassium chloride aqueous solution (Experimental Examples 1 and 2). Particulars: for off-taste suppressing effect: 0.8 wt % potassium chloride aqueous solution. Here is the method:
Each compound shown in the following Tables 1 to 13 was added to a 0.8 wt % potassium chloride aqueous solution at the concentration (addition concentration) shown in the following Tables 1 to 13 to prepare each evaluation sample.
Based on the following evaluation criteria, a panel of two experts determined by consensus the intensity of off-tastes (bitter taste, metallic taste, harsh taste, astringent taste) derived from potassium chloride in each evaluation sample, by reference to each potassium chloride aqueous solution adjusted to 0.8 wt %, 0.75 wt %, 0.7 wt %, or 0.65 wt %.
−: intensity of the same level as potassium chloride aqueous solution with potassium chloride concentration of not less than 0.8 wt %
+: intensity of the same level as potassium chloride aqueous solution with potassium chloride concentration of not less than 0.75 wt % and less than 0.8 wt %
++: intensity of the same level as potassium chloride aqueous solution with potassium chloride concentration of not less than 0.7 wt % and less than 0.75 wt %
+++: intensity of the same level as potassium chloride aqueous solution with potassium chloride concentration of not less than 0.65 wt % and less than 0.7 wt %
Each compound shown in the following Table 14 was added to a 0.8 wt % potassium chloride aqueous solution at the concentration (addition concentration) shown in the following Table 14 to prepare each evaluation sample.

The nature of test [2]: Sensory evaluation in ramen noodle soup solution with potassium chloride (Experimental Example 3). The protocol:
(§1) As shown in the following (1) to (3) below, 0.8 wt % of potassium chloride was added to a food base powder corresponding to 0.5 wt % of sodium chloride to prepare each base solution having an off-taste derived from potassium chloride.
Potassium chloride (0.8 g) was added to a soup powder (1.1 g) of a commercially available instant ramen noodle (manufactured by SANYO FOODS Co., Ltd., trade name “Sapporo Ichiban Shouyuaji”), hot water (98.1 g) was added to dissolve the mixture to prepare a base solution (ramen noodle soup solution).
(§2) Each compound shown in the following Tables 15 to 17 was added to each base solution (ramen noodle soup solution, chicken broth solution, potage solution) so as to achieve the concentration (addition concentration) shown in the following Tables 15 to 17 to prepare each evaluation sample.
(§3) By a method similar to that in Experimental Example 1, a panel of two experts determined the intensity of off-tastes (bitter taste, metallic taste, harsh taste, astringent taste) derived from potassium chloride in each evaluation sample.

A short description of test [3]: Sensory evaluation in chicken broth solution with potassium chloride (Experimental Example 3). Particulars: chicken broth solution with 0.8 wt % potassium chloride; addition concentration 100 ppb (12.5 weight ppm with respect to potassium chloride). The protocol:
as §1
Potassium chloride (0.8 g) was added to a commercially available powdered chicken broth mix (manufactured by Ajinomoto Co., Inc., trade name “Marutorigara Soup”) (1.0 g), hot water (98.2 g) was added to dissolve the mixture to prepare a base solution (chicken broth soup solution).
as §2, §3

Test [4] in a line: Sensory evaluation in potage solution with potassium chloride (Experimental Example 3). Particulars: Potage solution with 0.8 wt % potassium chloride; addition concentration 100 ppb (12.5 weight ppm with respect to potassium chloride). The protocol: as §1
Potassium chloride (0.8 g) was added to a commercially available powdered instant potage (manufactured by Ajinomoto Co., Inc., trade name “Knorr (registered trade mark) Cup Soup Potage”) (7.1 g), hot water (92.1 g) was added to dissolve the mixture to prepare a base solution (potage solution).
as §2, §3

For `CC1=C(O)C(=O)CO1` [4-hydroxy-5-methyl-3(2H)-furanone], the off-taste suppressing effect result in test [1] (addition concentration 1 weight ppb (0.125 weight ppm with respect to potassium chloride)) was “+ (intensity of the same level as potassium chloride aqueous solution with potassium chloride concentration of not less than 0.75 wt % and less than 0.8 wt %)”; in test [1] (addition concentration 5 weight ppb (0.625 weight ppm with respect to potassium chloride)), “+ (intensity of the same level as potassium chloride aqueous solution with potassium chloride concentration of not less than 0.75 wt % and less than 0.8 wt %)”; in test [1] (addition concentration 10 weight ppb (1.25 weight ppm with respect to potassium chloride)) it was “+ (intensity of the same level as potassium chloride aqueous solution with potassium chloride concentration of not less than 0.75 wt % and less than 0.8 wt %)”; in test [1] (addition concentration 50 weight ppb (6.25 weight ppm with respect to potassium chloride)), “++ (intensity of the same level as potassium chloride aqueous solution with potassium chloride concentration of not less than 0.7 wt % and less than 0.75 wt %)”; in test [1] (addition concentration 100 weight ppb (12.5 weight ppm with respect to potassium chloride)) it was “++ (intensity of the same level as potassium chloride aqueous solution with potassium chloride concentration of not less than 0.7 wt % and less than 0.75 wt %)”; in test [1] (addition concentration 500 weight ppb (62.5 weight ppm with respect to potassium chloride)), “+ (intensity of the same level as potassium chloride aqueous solution with potassium chloride concentration of not less than 0.75 wt % and less than 0.8 wt %)”. For the same compound, the off-taste suppressing effect result in test [2] (Ramen noodle soup solution with 0.8 wt % potassium chloride, addition concentration 100 ppb (12.5 weight ppm with respect to potassium chloride)) was “++ (intensity of the same level as potassium chloride aqueous solution with potassium chloride concentration of not less than 0.7 wt % and less than 0.75 wt %)”; in test [3], “++ (intensity of the same level as potassium chloride aqueous solution with potassium chloride concentration of not less than 0.7 wt % and less than 0.75 wt %)”; in test [4], “++ (intensity of the same level as potassium chloride aqueous solution with potassium chloride concentration of not less than 0.7 wt % and less than 0.75 wt %)”. In addition, the “intensity of off-tastes (bitter taste, metallic taste, harsh taste, astringent taste) derived from potassium chloride” value in test [1] (potassium chloride aqueous solutions, Tables 1 to 14) is reported as “decreased”; in test [2] (base solutions of Tables 15 to 17 (ramen noodle soup, chicken broth, potage)), “decreased”.
